{"source": "patent US20240000812A1", "about": "“PHARMACOLOGICAL AGENTS FOR TREATING CONDITIONS OF THE EYE” (PLEX PHARMACEUTICALS, INC., priority 2020, published 2024)", "key": {"[1]": {"tested_on": "chicks with form deprivation myopia", "test": "Form deprivation myopia chick model, scleral proteoglycan synthesis (35SO4 incorporation into glycosaminoglycans)", "type": "in vivo", "conditions": "high (2.25 mM) and low (0.75 mM) dose, 20 ul intravitreal daily for seven days; measured four hours after the final dose", "procedure": "Three compounds (quinpirole, CAP4719, and L-DOPA) were tested in chicks for their effects on scleral proteoglycan synthesis, as a measure of scleral growth, axial elongation and myopia. CAP4719 has the following structure: […]\nForm deprivation myopia is induced in the right eyes of 4-5 days old chicks by the application of translucent occluders. […] At the end of the treatment period, chicks are sacrificed, their sclera labelled in organ culture with 35SO4, and scleral proteoglycan synthesis measured by CPC-precipitation of newly synthesized glycosaminoglycans. Radioactivity is measured using scintillation counting, and the amount of radioactivity compared (as CPM) between right and left eyes of all groups of animals by paired t-tests and between different groups using ANOVA. […]\nThe right eyes were goggled (myopic) and injected with either the high dose, low dose, or vehicle of the CAP4719 compound. Proteoglycan synthesis was measured as the amount of 35SO4 (cpm) incorporated into glycosaminoglycans four hours after the final dose. […]"}, "[2]": {"tested_on": "experimental myopia in guinea pigs", "conditions": "systemic administration; cited from earlier work"}, "[3]": {"tested_on": "experimental myopia in chickens", "conditions": "intravitreal administration; cited from earlier work"}, "COMT": {"molecular_target": "COMT", "conditions": "known COMT inhibitors, cited from earlier work"}, "[4]": {"tested_on": "experimental myopia in rabbits", "conditions": "intravitreal administration of exogenous dopamine; cited from earlier work"}, "bovine lens extracts": {"tested_on": "bovine lens extracts", "test": "UVC/H2O2-induced aggregation of bovine lens extracts", "type": "biochemical", "conditions": "7 minutes exposure", "source_text": "FIG. 2 represents data relating to UVC/H2O2-induced aggregation of bovine lens extracts, as described in Example 4."}}, "note": "Where a name gives a salt, the structure may show the parent alone."}
{"compound": "Cc1ccc(C(=O)c2cc(OC(=O)CCCP(=O)([O-])[O-])c(O)c([N+](=O)[O-])c2)cc1.[Na+].[Na+]", "note": "[CAP4719]", "values": [{"measurement": "Block of the increase in proteoglycan synthesis in the goggled (myopic) right eye", "setting": "[1]", "result": "did not completely block the increase in proteoglycan synthesis"}, {"measurement": "Percentage increase in proteoglycan synthesis over the left (control) eye, compared with the vehicle", "setting": "[1]", "result": "appears to be lower"}]}
{"compound": "N[C@@H](Cc1ccc(O)c(O)c1)C(=O)O", "note": "[L-Dopa]", "values": [{"measurement": "Development of experimental myopia", "setting": "[2]", "result": "inhibit the development of experimental myopia"}, {"measurement": "Development of experimental myopia", "setting": "[3]", "result": "inhibit the development of experimental myopia"}]}
{"compound": "Cc1c(Cl)c(C)[n+]([O-])c(Cl)c1-c1noc(-c2cc(O)c(O)c([N+](=O)[O-])c2)n1", "note": "[Opicapone]", "values": [{"measurement": "Ki", "setting": "COMT", "result": 1, "unit": "nM"}]}
{"compound": "NCCc1ccc(O)c(O)c1", "note": "[dopamine]", "values": [{"measurement": "Development of experimental myopia", "setting": "[4]", "result": "inhibit the development of experimental myopia"}]}
{"compound": "Cc1ccc(C(=O)c2cc(O)c(O)c([N+](=O)[O-])c2)cc1", "note": "[CAP1160]", "values": [{"measurement": "Prevention of UVC/H2O2-induced aggregation of bovine lens extracts", "setting": "bovine lens extracts", "result": "prevents UVC/H2O2-induced aggregation of bovine lens extracts"}]}
{"compound": "O=C(NCCCNC(=O)c1ccc(O)c(O)c1)c1ccc(O)c(O)c1", "note": "[Bifunctional inhibitor, N,N′-(propane-1,3-diyl)bis(3,4-dihydroxybenzamide)]", "values": [{"measurement": "IC50", "setting": "COMT; read-out: IC50 (concentration of the inhibitor that affords a 50% inhibition in the activity of the enzyme, COMT)", "result": 300, "unit": "nM"}]}
{"compound": "O=C(CCN1CCN(c2cccc(C(F)(F)F)c2)CC1)c1cc(O)c(O)c([N+](=O)[O-])c1", "note": "[BIA 3-335, 1-(3,4-Dihydroxy-5-nitrophenyl)-3-{4-[3-(trifluoromethyl)phenyl]-1-piperazinyl}-1-propanone dihydrochloride]", "values": [{"measurement": "Ki", "setting": "COMT", "result": 6, "unit": "nM"}]}
